Measured values reported in patent US20210177814A1, “USE OF GUANABENZ OR DERIVATES THEREOF FOR THE TREATMENT OF TYPE I IFN-DEPENDENT PATHOLOGIES” (INSERM (Institut National de la Santé et de la Recherche …, priority 2018, published 2021).

Target: T1, TLR9 (Mus musculus, UniProt Q9EQU3)
T1 construct: from tissue; host or cells: whole animal: C57BL/6, FVB and FVB GADD34ΔC/ΔC mice
T1 sequence (Q9EQU3 26-1032): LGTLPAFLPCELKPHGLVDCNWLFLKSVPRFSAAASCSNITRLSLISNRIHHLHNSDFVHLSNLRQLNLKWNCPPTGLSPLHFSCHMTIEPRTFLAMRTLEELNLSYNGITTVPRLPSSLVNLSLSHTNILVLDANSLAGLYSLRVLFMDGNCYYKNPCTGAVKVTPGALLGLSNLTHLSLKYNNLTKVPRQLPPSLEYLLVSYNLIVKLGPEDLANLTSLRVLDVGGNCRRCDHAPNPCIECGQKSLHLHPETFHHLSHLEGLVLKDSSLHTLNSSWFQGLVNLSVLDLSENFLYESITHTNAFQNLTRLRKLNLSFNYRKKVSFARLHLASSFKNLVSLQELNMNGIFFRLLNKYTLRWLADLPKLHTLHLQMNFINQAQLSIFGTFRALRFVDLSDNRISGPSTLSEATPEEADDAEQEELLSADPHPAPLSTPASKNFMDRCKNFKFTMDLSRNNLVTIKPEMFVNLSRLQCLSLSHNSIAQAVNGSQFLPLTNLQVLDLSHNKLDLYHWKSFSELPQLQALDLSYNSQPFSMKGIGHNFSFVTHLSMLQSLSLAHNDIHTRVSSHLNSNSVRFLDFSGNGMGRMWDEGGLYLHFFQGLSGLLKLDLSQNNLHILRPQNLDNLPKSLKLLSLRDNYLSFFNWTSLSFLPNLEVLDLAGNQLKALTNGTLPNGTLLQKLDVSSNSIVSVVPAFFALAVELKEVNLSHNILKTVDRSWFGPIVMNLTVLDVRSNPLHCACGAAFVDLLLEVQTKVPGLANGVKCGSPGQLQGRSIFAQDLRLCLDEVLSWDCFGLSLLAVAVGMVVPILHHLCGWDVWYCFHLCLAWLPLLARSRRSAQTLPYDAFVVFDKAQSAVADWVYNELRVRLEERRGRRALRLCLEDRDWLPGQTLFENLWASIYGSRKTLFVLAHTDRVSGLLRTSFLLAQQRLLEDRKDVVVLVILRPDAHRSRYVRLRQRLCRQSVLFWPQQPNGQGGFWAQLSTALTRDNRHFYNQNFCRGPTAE
Assay: D-galN/CpG ODN 1826 cytokine shock model
Assay type: in vivo
Description: WT and GADD34^ΔC/ΔC mice were injected with D-galN (20 mg/mouse), CpG ODN 1826 or PBS for control mice (50 μg/20 g), GBZ or clonidine (2 mg/kg). (A) Survival of C57/BL6 mice is represented as total percentage of survival after 48 h or in a Kaplan-Meier plot. (B) Survival of FVB (WT) and FVB GADD34^ΔC/ΔC mice is represented as total percentage of survival after 48 h or in a Kaplan-Meier plot. (C) The concentration of circulating TNF-α, IL-10 and IL-6 in C57/BL6 mice was measured after 1 h and/or 3 h of CpG ODN 1826. (D) Liver tissue damage and histology score were blindly determined by a professional anatomopathologist. Statistical significance was assigned on sample comparison by a one-way ANOVA, followed by Tukey range test and on the survival curve using log-rank test, followed by Benjamini-Yekutieli correction (* p<0.05; ** p<0.005; ***p<0.0005.).
Wild type female mice C57BL/6 of 8 weeks of age were injected i.p. with 2 mg/kg of GBZ, clonidine or PBS/DMSO. One hour later, they were injected i.p. with 20 mg/mouse of d-GalN and ODN 1826 50 μg/20 g (or PBS). Mice survival was checked every 12 hours for up to 48 hours. For some experiments, blood sera were collected 1 and 3 h after the injection of D-galN. The serum was used to measure circulating cytokines (TNFα, IL-6, IFNβ IL-10, IL-12). For some experiments, the liver was collected for immunohistochemistry after two days. For i.p. injections, 1 ml syringes and 25 gauge needles were used. Blood was collected from the cheek with a 18 gauge needle; for the TMPD model, no more than 200 μL were collected each time, respecting the ethic statement.
Mouse kidney and liver were fixed in 10% buffered formalin for 24 h, then the tissues were dehydrated and embedded in paraffin. Tissue sections of 3.5 μm were cut using the microtom Leica RM2245. Hematoxylin-eosin staining was effectuated automatically with Leica autostainer XL. Finally, the slides were mounted with entellan and kept at room temperature. Biopsies were analyzed by an anatomopathologist and the clinical score was assigned in a blinded way. Pictures were taken with Nikon Eclipse.
• a) Lobular inflammation • 0—no inflammation, 1—mild lobular inflammation (<10% of liver parenchyma), 2—moderate lobular inflammation (10-50% of liver parenchyma), 3—severe lobular inflammation (>50% of liver parenchyma) • b) Portal inflammation • 0—no portal inflammation, 1—mild portal inflammation (<⅓ of portal tracts), 2—moderate portal inflammation (approximately 50% of portal tracks), 3—severe portal inflammation (>⅔ of portal tracts) • Portal and lobular inflammation score are added=inflammation score • c) Necrosis • 0—No necrosis, 1—<10% necrosis of liver parenchyma, 2—10-25% necrosis of liver parenchyma, 3—25% necrosis of liver parenchyma • Inflammation score and necrosis score are added=Total histologic score

[1] = WT mice, 1 hour after CpG injection, 2 mg/kg
[2] = WT mice, 3 h after CpG injection, 2 mg/kg

In the case of `Clc1cccc(Cl)c1NC1=NCCN1` [clonidine, N-(2,6-dichlorophényl)-4,5-dihydro-1H-imidazol-2-amine], the “survival after 48 h” value (C57BL/6 WT mice, D-galN + CpG ODN 1826, compound 2 mg/kg i.p.) is reported as “not substantially changed”, the “circulating IL-6 plasma concentration” value [1] is reported as “some inhibitory effect” and the “circulating TNF-α plasma concentration” value [1] is reported as “some inhibitory effect”. The “inhibitory effect on IL-6 production” value [2] was “not observed” and the “inhibitory effect on TNF-α production” value [2] was “not observed”.
